Data: patent publication US4547357A, “N-Hydroxyethylated 2,4,6-triiodoaminoisophthalic acid bistrihydroxybutylamides, their preparation and x-ray contrast media containing them” (priority 1981, dated 1985)
Where two headings read alike, the source gives them in different places.

Key:
Rat [1] = experiment: Neural compatibility, rat, pericerebral ED50; assay type: in vivo
Text: (§1) In Table I, the following compounds are compared with respect to neural and general compatibility: […]

Mouse = experiment: General compatibility, mouse LD50; assay type: in vivo; details: for Mouse LD50: General compatibility
Text: as §1

[2] = Viscosity at 37° C., 300 mg I/ml; assay type: physicochemical
Solubility in water = assay type: physicochemical; details: in 100 ml of water; read-out: Solubility (100 ml of water dissolves)
Rat [3] = experiment: Neural compatibility, rat, intracisternal ED50; assay type: in vivo
Text: as §1

Iodine content = assay type: physicochemical
[4] = Number of hydroxy groups per molecule; assay type: physicochemical
[5] = clinical experience; cited from earlier work
Rat [6] = experiment: Neural compatibility, comparison in words; assay type: in vivo; details: data of Table I
Text: as §1

CC(=O)N(CCO)c1c(I)c(C(=O)NC(CO)C(O)CO)c(I)c(C(=O)NC(CO)C(O)CO)c1I (stereo not drawn) [Example 2, 5-[N-(2-Hydroxyethyl)acetylamino]-2,4,6-triiodoisophthalic acid bis(erythro-1,3,4-trihydroxybut-2-yl)diamide]
Rat, pericerebral ED50 (Rat [1]; listed as A2): 188 mg I/kg | Mouse LD50 (Mouse; listed as A2): 22 g I/kg | Viscosity ([2]; listed as A2): 6.2 mPa · s | solubility (Solubility in water): > 700 mg/mL

C[C@H](O)C(=O)Nc1c(I)c(C(=O)NC(CO)CO)c(I)c(C(=O)NC(CO)CO)c1I [C, Iopamidol]
Rat, pericerebral ED50 (Rat [1]): 154 mg I/kg | Rat, intracisternal ED50 (Rat [3]): 116 mg I/kg | Mouse LD50 (Mouse): 15 g I/kg | Iodine content (Iodine content): 49% | Number of hydroxy groups/molecule [4]: 5 | Viscosity [2]: 4.5 mPa · s | side effects (in words) [5]: still are not devoid of side effects

CC(=O)N(CC(O)CO)c1c(I)c(C(=O)NCC(O)CO)c(I)c(C(=O)NCC(O)CO)c1I (centres unmarked) [D, Iohexol]
Rat, pericerebral ED50 (Rat [1]): 83 mg I/kg | Rat, intracisternal ED50 (Rat [3]): 67 mg I/kg | Mouse LD50 (Mouse): 15 g I/kg | Iodine content (Iodine content): 46% | Number of hydroxy groups/molecule [4]: 6 | Viscosity [2]: 5.5 mPa · s | side effects (in words) [5]: still are not devoid of side effects

CC(=O)Nc1c(I)c(C(=O)N[C@H]2C(O)O[C@H](CO)[C@@H](O)[C@@H]2O)c(I)c(N(C)C(C)=O)c1I (some centres unmarked) [B, Metrizamide]
Rat, pericerebral ED50 (Rat [1]): 62 mg I/kg | Rat, intracisternal ED50 (Rat [3]): 48 mg I/kg | Mouse LD50 (Mouse): 14 g I/kg | Iodine content (Iodine content): 48% | Number of hydroxy groups/molecule [4]: 4 | Viscosity [2]: 6.2 mPa · s | side effects (in words) [5]: still are not devoid of side effects

CC(=O)N(CCO)c1c(I)c(C(=O)NC(CO)C(O)CO)c(I)c(C(=O)NC(CO)C(O)CO)c1I (stereo not drawn) [Example 1, 5-[N-(2-Hydroxyethyl)acetylamino]-2,4,6-triiodoisophthalic acid bis(threo-1,3,4-trihydroxybut-2-yl)diamide]
Rat, pericerebral ED50 (Rat [1]; listed as A1): 171 mg I/kg | Rat, intracisternal ED50 (Rat [3]): 130 mg I/kg | Mouse LD50 (Mouse; listed as A1): 17 g I/kg | general compatibility (in words) (Mouse; data of Table I): superior to the comparison compounds | Iodine content (Iodine content): 45% | Number of hydroxy groups/molecule [4]: 7 | Viscosity ([2]; listed as A1): 5.8 mPa · s | neural compatibility (in words) (Rat [6]): superior to the comparison compounds

CC(=O)N(CCO)c1c(I)c(C(=O)NCC(O)C(O)CO)c(I)c(C(=O)NCC(O)C(O)CO)c1I (centres unmarked) [Example 4, 5-[N-(2-Hydroxyethyl)acetylamino]-2,4,6-triiodo-isophthalic Acid Bis(2,3,4-trihydroxybut-1-yl)-diamide]
solubility (Solubility in water): > 700 mg/mL

CC(=O)N(CCO)c1c(I)c(C(=O)NC(CO)(CO)CO)c(I)c(C(=O)NC(CO)(CO)CO)c1I [Example 3, 5-[N-(2-Hydroxyethyl)acetylamino]-2,4,6-triiodo-isophthalic Acid Bis(1,1,1-trishydroxymethylmethyl)diamide]
solubility (Solubility in water): > 700 mg/mL
